Assay results: patent US4987144A, “1,3-bis(1,2,4-triazol-1-yl)2-(4-trifluoromethylphenyl)propan-2-ol useful for the prevention and/or treatment of deep-seated mycosis” (SS Pharmaceutical Co., Ltd., priority 1989, dated 1991)

Key:
Candida albicans [1] = assay: Antimycotic activities of similar compounds in a manner similar to Test 1, oral administration (Referential Test); assay type: in vivo, Candida albicans (in male ICR mice); details: in Mus musculus, 336 h, read-out: T/C; for response vs control in vivo at 40 mg: Dose (mg) 40, oral
Method: (§1) Male ICR mice of 4 weeks old were used as groups, each consisted of 5 mice. Each mouse was inoculated at caudal vein with 2.8×106^6 cells of Candida albicans. From one hour after the inoculation, each test compound was dissolved in 0.5 mλ of 0.06 N hydrochloric acid which had been added with "0.2% TO-10M" (trade name; product of Nikko Chemicals Co., Ltd.) and was orally administered once a day, four times in total. The mice were observed until the 14th day after the inoculation of the fungus. The average survival days of each group was compared with those of the control group to determine T/C (%). [formula]
In a manner similar to Test 1, antimycotic activities of each of the test compounds shown below in Table 2 were investigated. As will be readily envisaged from the results, practically no antimycotic activities were observed from the oral administration of those compounds.

[2] = Measurement of body weight variations (Test 2); assay type: in vivo, male ICR mice; details: for body weight change after administration (in words): group administered with the compound; for body weight: 2.5 mg/Kg
Candida albicans [3] = assay: Antimycotic activities: survival of mice inoculated with Candida albicans, oral administration (Test 1); assay type: in vivo, Candida albicans (in male ICR mice); details: for T/C: once a day, four times, average survival days vs control, to 14th day after inoculation
Method: as §1

Acute toxicity, oral = details: mouse, in vivo, mice, P.O.

With `OC(Cn1cncn1)(Cn1cncn1)c1cc(F)c(OCc2ccccc2)c(F)c1` the response vs control in vivo at 40 mg (Candida albicans [1]) was 73%.

Work on `Oc1cc(F)c(F)cc1C(O)(Cn1cncn1)Cn1cncn1` yielded a response vs control in vivo at 40 mg (Candida albicans [1]) of 125%.

Work on `COc1c(F)cc(C(O)(Cn2cncn2)Cn2cncn2)cc1F` yielded a response vs control in vivo at 40 mg (Candida albicans [1]) of 91%.

`Oc1c(F)cc(C(O)(Cn2cncn2)Cn2cncn2)cc1F` gave a response vs control in vivo at 40 mg (Candida albicans [1]) of 82%.

For `OC(Cn1cncn1)(Cn1cncn1)c1ccc(F)cc1F` [Fluconazole], the “body weight change after administration (in words)” value [2] was “body weight reductions were observed”, the T/C (Candida albicans [3]; 1.25 mg/kg) was 143% and the T/C (Candida albicans [3]; 2.5 mg/kg) was 379%. For the same molecule, the T/C (Candida albicans [3]; 5 mg/kg) was 443%.

For `CC(=O)Nc1ccc(C(O)(Cn2cncn2)Cn2cncn2)c(F)c1`, the response vs control in vivo at 40 mg (Candida albicans [1]) was 82%.

`OC(Cn1cncn1)(Cn1cncn1)c1ccc(-c2ccc(F)cc2)cc1` showed a response vs control in vivo at 40 mg (Candida albicans [1]) of 136%.

Molecule `CCCOc1cc(F)ccc1C(O)(Cn1cncn1)Cn1cncn1` has a response vs control in vivo at 40 mg (Candida albicans [1]) of 125%.

With `OC(Cn1cncn1)(Cn1cncn1)c1ccc(F)cc1OCc1ccc(F)cc1` the response vs control in vivo at 40 mg (Candida albicans [1]) was 117%.

In the case of `OC(Cn1cncn1)(Cn1cncn1)c1cc(C(F)(F)F)cc(C(F)(F)F)c1`, the response vs control in vivo at 20 mg (Candida albicans [1]; Dose (mg) 20, oral) is reported as 118%.

`N#Cc1ccc(C(O)(Cn2cncn2)Cn2cncn2)c(F)c1` showed a response vs control in vivo at 40 mg (Candida albicans [1]) of 81%.

With `OC(Cn1cncn1)(Cn1cncn1)c1ccc(C(F)(F)F)cc1` [Triazole compound (I), 1,3-bis(1,2,4-triazol-l-yl)-2-(4-trifluoromethylphenyl)propan-2-ol] the body weight ([2]; 0 days after administration) was 21.0 g, the body weight ([2]; 1 day after administration) was 20.6 g and the body weight ([2]; 2 days after administration) was 21.4 g. It also gave a body weight ([2]; 3 days after administration) of 22.2 g, a body weight ([2]; 4 days after administration) of 23.0 g and a body weight ([2]; 5 days after administration) of 23.3 g. The body weight ([2]; 6 days after administration) was 23.1 g, the “body weight change after administration (in words)” value [2] was “the body weight increased steadily” and the LD50 (Acute toxicity, oral) was 1200 mg/kg. The T/C (Candida albicans [3]; 1.25 mg/kg) was 186%, the T/C (Candida albicans [3]; 2.5 mg/kg) was 385% and the T/C (Candida albicans [3]; 5 mg/kg) was 450%. For the same molecule, the “apothanasia effects upon oral administration (in words)” value (Candida albicans [3]; compared with fluconazole) was “greater than fulconazole”.

With `OC(Cn1cncn1)(Cn1cncn1)c1ccc(F)cc1OCc1ccccc1` the response vs control in vivo at 40 mg (Candida albicans [1]) was 122%.
